Experimental data as given in the NIST ThermoML archive (doi:10.1016/j.tca.2004.11.022).
Numbers after ± are expanded uncertainties.

Columns and labels:
[1] = 101.33 kPa, Liquid; for mass density: Vibrating tube method; for speed of sound: Pulse-echo method
[2] = molar heat capacity at constant pressure; conditions: 101.33 kPa, Liquid, Small sample (50 mg) DSC

Compound	mass density ([1]; 288.15 K) [kg/m3]	mass density ([1]; 293.15 K) [kg/m3]	speed of sound ([1]; 298.15 K) [m/s]	mass density ([1]; 298.15 K) [kg/m3]	mass density ([1]; 308.15 K) [kg/m3]	molar heat capacity at constant pressure ([2]; 288.15 K) [J/K/mol]	molar heat capacity at constant pressure ([2]; 298.15 K) [J/K/mol]	molar heat capacity at constant pressure ([2]; 308.15 K) [J/K/mol]
COC(=O)OC [dimethyl carbonate]	1076.56 ± 0.55	1070.02 ± 0.55	1197.1 ± 1.6	1063.42 ± 0.55	1050.11 ± 0.54	164.03 ± 3.3	165.02 ± 3.3	166.3 ± 3.3
CCCCCCCCC [nonane]	721.66 ± 0.41	717.75 ± 0.41	1206.3 ± 1.6	713.85 ± 0.41	706.05 ± 0.41	280.13 ± 5.6	284.23 ± 5.7	288.8 ± 5.8
CCCCCCCC [octane]	706.54 ± 0.26	702.53 ± 0.26	1172.1 ± 1.3	698.5 ± 0.27	690.34 ± 0.27	250.12 ± 5	253.94 ± 5.1	258.03 ± 5.2
